Laboratory results from article PMC8482815, “Targeting Host Glycolysis as a Strategy for Antimalarial Development” (Frontiers in Cellular and Infection Microbiology, 2021).
Where “and” joins values, the source holds several entries; their conditions need not be identical. Equal entries are not always repeated.

Test system: human erythrocytes
Assay: Untargeted metabolomics and 13C-glucose tracing of enolase inhibitor treated erythrocytes
Type: cell-based
Conditions: 0h
Description: Freshly collected erythrocytes were washed, resuspended to 10% hematocrit in buffer [25mM HEPES (pH 7.4), 120mM NaCl, 5.4mM KCl, 1.8mM CaCl2, and 1mM NaH2PO4], incubated for 1 hour at 37°C, then centrifuged at 2000xg for 5 minutes at 4°C, resuspended in fresh wash buffer to 30-40% hematocrit, and split into 210µL aliquots of packed erythrocytes. […] All samples were incubated at 37°C shaking at 500 RPM. Triplicate samples of supernatants and packed erythrocytes were collected at 0, 0.5, 1, and 6-hour intervals and snap-frozen in liquid N2.
RBC and media samples were extracted at 1:10 and 1:20 dilutions, respectively, in 5:3:2 MeOH : MeCN:H2O v/v/v, and supernatants analyzed on a Thermo Vanquish UHPLC coupled to a Thermo Q Exactive mass spectrometer, as extensively described ([Nemkov et al., 2015]; [Nemkov et al., 2017]). The extraction buffer was supplemented with 40uM 3-^13C lactate to allow absolute quantification of lactate isotopologues, including lactate generated via glycolysis ([1,2,3-^13C3] enriched) vs. the pentose phosphate pathway ([2,3-^13C2] enriched), as described ([Reisz et al., 2016]). Metabolite assignments, peak area integration and isotopologues distributions were determined using Maven (Princeton University) ([Nemkov et al., 2015]; [Nemkov et al., 2017]).
Data were auto-scaled and normalized to zero-hour time points. Metabolites were removed from the dataset if greater than 50% of the samples contained missing values or the relative standard deviation among replicates exceeded 25%. Additionally, data was filtered using the interquartile range to reduce near-constant values from the experiment by 5%.
A principal component analysis of preprocessed data was plotted with the 95% confidence interval minimum volume enclosing ellipsoid for each respective group (MetaboAnalyst, cluster, plotly). A two-way repeated measures analysis of variance (ANOVA) was performed with multiple comparisons corrected for using a false discovery rate p-value cutoff of 0.05. Metabolite-Pathway analysis was performed using the R package of MetaboAnalyst, as previously described ([Xia and Wishart, 2010]). Metabolite-Protein nodal analysis was performed using omicsnet.ca and as previously described ([Zhou and Xia, 2018]).

[1] = treated erythrocytes, one value per replicate sample, polarity +
[2] = treated erythrocytes, one value per replicate sample, polarity -
[3] = treated erythrocytes, replicate samples

## CC(C)(C)C(=O)OCOP(=O)(OCOC(=O)C(C)(C)C)C1CCCN(O)C1=O (stereo not shown) [POMHEX]
Replicate samples
  AMP level (metabolomics signal): 2.43E+06 and 4.08E+06 and 2.38E+06
  ATP level (metabolomics signal): 7.62E+03 and 7.58E+03 and 9.00E+03
  Adenine level (metabolomics signal): 1.31E+05 and 1.38E+05 and 1.32E+05
  Cytosine level (metabolomics signal): 8.55E+04 and 2.38E+05 and 4.74E+05
  L-alanine level (metabolomics signal): 7.28E+06 and 6.97E+06 and 9.28E+06
  L-arginine level (metabolomics signal): 7.34E+06 and 1.51E+07 and 4.28E+06
  L-asparagine level (metabolomics signal): 3.07E+06 and 3.14E+06 and 2.95E+06
  L-aspartate level (metabolomics signal): 3.52E+07 and 3.22E+07 and 3.54E+07
  L-cysteine level (metabolomics signal): 4.11E+05 and 4.42E+05 and 1.93E+05
  L-glutamate level (metabolomics signal): 3.91E+07 and 3.64E+07 and 4.16E+07
  L-glutamine level (metabolomics signal): 3.51E+07 and 3.65E+07 and 2.77E+07
  L-histidine level (metabolomics signal): 1.77E+06 and 1.86E+06 and 1.64E+06
  L-isoleucine level (metabolomics signal): 0.00E+00 and 2.79E+07 and 2.01E+07
  L-leucine level (metabolomics signal): 1.13E+08 and 1.29E+08 and 1.02E+08
  L-lysine level (metabolomics signal): 3.76E+06 and 3.91E+06 and 3.34E+06
  L-methionine level (metabolomics signal): 1.20E+07 and 1.28E+07 and 9.77E+06
  L-phenylalanine level (metabolomics signal): 3.89E+06 and 5.35E+06 and 4.43E+06
  L-proline level (metabolomics signal): 3.87E+07 and 4.04E+07 and 2.78E+07
  L-serine level (metabolomics signal): 2.27E+06 and 2.30E+06 and 2.07E+06
  L-threonine level (metabolomics signal): 3.34E+06 and 3.50E+06 and 3.23E+06
  L-tryptophan level (metabolomics signal): 4.61E+06 and 3.92E+06 and 4.51E+06
  L-tyrosine level (metabolomics signal): 1.31E+07 and 1.44E+07 and 1.06E+07
  L-valine level (metabolomics signal): 1.25E+08 and 1.20E+08 and 1.19E+08
  dCMP level (metabolomics signal): 2.66E+04 and 2.57E+04 and 1.91E+04
  dTMP level (metabolomics signal): 1.47E+06 and 1.26E+06 and 9.65E+05
  glycine level (metabolomics signal): 1.29E+06 and 1.21E+06 and 1.30E+06
[1]
  N-Acyl-D-aspartate (C06380) metabolite signal: 2.82E+05 and 3.24E+05 and 2.89E+05
  Poly-gamma-D-glutamate (C05723) metabolite signal: 2.28E+07 and 2.38E+07 and 1.86E+07
[2]
  D-Ribitol 5-phosphate (C01068) metabolite signal: 1.18E+04 and 2.78E+04 and 2.55E+04
  D-glucono-1,5-lactone (C00198) metabolite signal: 7.35E+05 and 6.39E+05 and 6.34E+05
  L-Noradrenaline (C00547) metabolite signal: 2.10E+05 and 2.67E+05 and 1.54E+05
  Oxalosuccinate (C05379) metabolite signal: 1.80E+05 and 1.89E+05 and 1.75E+05
  Pyridoxamine (C00534) metabolite signal: 3.47E+04 and 2.11E+04 and 4.13E+04
  Thioredoxin disulfide (C00343) metabolite signal: 8.56E+04 and 8.74E+04 and 6.44E+04
[3]
  1-4-beta-D-Xylan (metabolite signal): 2.75E+05 and 3.19E+05 and 2.60E+05
  2-Hydroxyglutarate/Citramalate (C02630) metabolite signal: 1.87E+05 and 1.44E+05 and 1.36E+05
  5-6-Dihydrothymine (C00906) metabolite signal: 3.37E+05 and 3.23E+05 and 2.70E+05
  5-10-Methenyltetrahydrofolate (metabolite signal): 3.52E+05 and 3.49E+05 and 3.48E+05
  5-Hydroxyisourate (C11821) metabolite signal: 4.58E+06 and 4.14E+06 and 5.16E+06
  5-L-Glutamyl-taurine (metabolite signal): 1.13E+05 and 1.05E+05 and 1.57E+05
  5-Oxoproline (metabolite signal): 1.19E+06 and 1.09E+06 and 9.91E+05
  (S)(+)-Allantoin (C02350) metabolite signal: 4.00E+04 and 4.50E+04 and 4.43E+04
  Allantoate (C00499) metabolite signal: 3.63E+05 and 4.40E+05 and 2.26E+05
  Ascorbate (metabolite signal): 1.03E+05 and 1.39E+05 and 1.05E+05
  CMP-N-acetylneuraminate (metabolite signal): 3.22E+04 and 2.63E+04 and 3.17E+04
  Carnosine (metabolite signal): 2.22E+05 and 1.73E+05 and 2.52E+05
  Citrate (C00158) metabolite signal: 2.73E+04 and 3.19E+04 and 2.59E+04
  Creatine (metabolite signal): 2.64E+08 and 2.63E+08 and 2.96E+08
  Creatinine (metabolite signal): 3.90E+06 and 3.59E+06 and 3.78E+06
  Cys-Gly (metabolite signal): 1.91E+06 and 2.03E+06 and 2.13E+06
  D-Glucosamine (metabolite signal): 6.56E+04 and 1.26E+05 and 1.11E+05
  D-Glucose (C00031) metabolite signal: 7.03E+06 and 7.96E+06 and 6.07E+06
  D-Ribose (C00121) metabolite signal: 2.42E+05 and 2.08E+05 and 2.00E+05
  Dehydroascorbate (metabolite signal): 6.66E+03 and 1.26E+04 and 9.16E+03
  Dihydrofolate (metabolite signal): 2.17E+06 and 2.08E+06 and 1.28E+06
  Dimethylglycine (metabolite signal): 1.13E+06 and 1.12E+06 and 1.22E+06
  Diphosphate (C00013) metabolite signal: 2.29E+03 and 2.81E+03 and 1.30E+03
  Fumarate (C00122) metabolite signal: 1.70E+05 and 1.53E+05 and 1.29E+05
  Glutathione (C00051) metabolite signal: 1.29E+08 and 1.42E+08 and 1.45E+08
  Glutathione disulfide (metabolite signal): 4.07E+05 and 2.99E+05 and 3.44E+05
  Hypoxanthine (C00262) metabolite signal: 1.23E+05 and 8.50E+04 and 1.07E+05
  IMP (C00130) metabolite signal: 2.07E+04 and 4.13E+04 and 2.42E+04
  Inosine (C00294) metabolite signal: 1.23E+05 and 1.19E+05 and 1.09E+05
  L-Citrulline (metabolite signal): 2.18E+06 and 2.13E+06 and 2.77E+06
  L-Homoserine (metabolite signal): 1.85E+05 and 2.19E+05 and 1.31E+05
  Lactate (C01432) metabolite signal: 7.44E+06 and 7.84E+06 and 7.12E+06
  Malate (C00149) metabolite signal: 4.07E+05 and 3.13E+05 and 3.03E+05
  Mannitol (C00392) metabolite signal: 1.01E+05 and 1.11E+05 and 1.22E+05
  N-Acetylneuraminate (metabolite signal): 3.05E+04 and 3.27E+04 and 2.27E+04
  N-Glycoloyl-neuraminate (metabolite signal): 2.02E+05 and 2.52E+05 and 1.61E+05
  NAD+ (C00003) metabolite signal: 3.20E+05 and 3.25E+05 and 4.11E+05
  Nicotinamide (C00153) metabolite signal: 2.56E+07 and 2.61E+07 and 2.89E+07
  Ornithine (metabolite signal): 2.51E+06 and 2.56E+06 and 2.47E+06
  Oxaloacetate (C00036) metabolite signal: 4.82E+04 and 5.32E+04 and 4.35E+04
  Phosphoserine (metabolite signal): 1.31E+05 and 1.59E+05 and 1.52E+05
  Putrescine (metabolite signal): 5.04E+04 and 6.26E+04 and 7.87E+04
  Pyridoxal (C00250) metabolite signal: 5.06E+04 and 4.81E+04 and 5.68E+04
  Pyruvate (C00022) metabolite signal: 8.21E+05 and 7.91E+05 and 7.06E+05
  S-Glutathionyl-L-cysteine (metabolite signal): 1.68E+05 and 1.57E+05 and 8.75E+04
  Sedoheptulose 1-phosphate (C06222) metabolite signal: 4.53E+04 and 4.14E+04 and 2.92E+04
  Spermidine (metabolite signal): 9.43E+06 and 1.01E+07 and 9.63E+06
  Spermine (metabolite signal): 8.86E+06 and 9.58E+06 and 9.08E+06
  Succinate (C00042) metabolite signal: 1.10E+05 and 1.06E+05 and 1.08E+05
  Thymidine (C00214) metabolite signal: 1.93E+04 and 1.39E+04 and 1.28E+04
  UDP (C00015) metabolite signal: 3.47E+05 and 4.31E+05 and 2.43E+05
  UDP-N-acetyl-D-glucosamine (metabolite signal): 2.77E+04 and 2.13E+04 (2×)
  UDP-glucose (C00029) metabolite signal: 8.05E+04 and 6.15E+04 and 6.31E+04
  Urate (C00366) metabolite signal: 4.79E+04 and 4.62E+04 and 3.28E+04
  Xanthine (C00385) metabolite signal: 3.87E+05 and 3.78E+05 and 3.91E+05
  alpha-D-Glucosamine 1-phosphate (metabolite signal): 1.72E+06 and 1.66E+06 and 2.32E+06
  alpha-D-Ribose 1-phosphate (C00620) metabolite signal: 1.60E+05 and 1.43E+05 and 1.11E+05
  gamma-Glutamyl-gamma-aminobutyrate (metabolite signal): 8.08E+04 and 5.90E+04 and 1.10E+05
  gamma-L-Glutamyl-D-alanine (metabolite signal): 2.48E+04 and 2.19E+04 and 1.85E+04
  gamma-L-Glutamyl-L-cysteine (metabolite signal): 2.81E+04 and 3.64E+04 and 2.51E+04
